This is an account of results in patent US20260272924A1, “ISOINDOLINE DERIVATIVE, BENZOINDOLE DERIVATIVE AND USE THEREOF” (SHANGHAI HELIOSON PHARMACEUTICAL CO., LTD., priority 2023, published 2026).

Common to all, as to assay type: cell-based
The test system of assay [1] is NCI-H929 multiple myeloma cells. As to the kind of experiment: Cell Titer-GLO (CTG) assay for proliferation of NCI-H929 cells. Conditions: Homo sapiens, 72 hours. The method in brief: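 NCI-H929 cells, 5000/well, treated next day with compound from 0.00512 to 400 nM (5-fold steps, duplicates) for 72 h at 37° C. Viability by CellTiter-Glo luminescence, normalised to 0.1% DMSO and medium blank; IC50 and maximal inhibition from nonlinear dose-response regression.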
A general note: Cellular ATP, detected with luciferase, serves as a proxy for viable cell number.

The target of the next assay is T1, IKZF1 (Homo sapiens, UniProt Q13422+Q96SW2).
T1 construct: NCI-H929 cells were inoculated into a 96-well plate at 100,000 cells per well and cultured overnight; endogenous in cells; host or cells: NCI-H929
As to the kind of experiment: Protein degradation assay (In-Cell Western), IKZF1. Conditions: NCI-H929 cells, 24 hours. As for the experimental part: (§1) NCI-H929 cells were inoculated into a 96-well plate at 100,000 cells per well and cultured overnight. Compounds at concentrations of 1600 nM, 400 nM, 100 nM, 25 nM, 6.25 nM, 1.56 nM, 0.39 nM, and 0.1 nM were dosed with duplicate wells, and the cells were incubated in an incubator at 37° C. for 24 hours. After the incubation, the supernatant was removed by centrifugation, and 150 μL of 4% paraformaldehyde was added. The cells were incubated at room temperature for 20 minutes, then, 200 μL of a washing solution (0.1% TritonX-100, Beyotime; ST1722) was added and incubated at room temperature on a shaker. After repeating the washing four times, 150 μL of a Licor INTERCEPT blocking solution (Lico, Cat No. 927-70001) was added, and the cells were incubated on a shaker at room temperature for 1.5 hours. Antibodies IKZF1 (Cell Signaling; Cat No. 14859S), IKZF3 (Cell Signaling; Cat No. 15103S), GSPT1 (Proteintech, Cat No. 10763-1-AP), CK1a (Thermo; 7117067), and SALL4 (Abcam, ab22675) were diluted with an antibody dilution solution (Intercept Blocking Buffer, LI-COR, 211114) at 1:100 and 50 μL of each diluted primary antibody was added into the 96-well plate. The cells were incubated overnight on a shaker at 4° C. After the primary antibodies were removed and repeated washing was performed with PBST for 4 times, 50 μL of a diluted secondary antibody (Licor, Cat No. 926-68070) was added, and IRDye 800CW and IRDye 680CW were added at 0.5 μL simultaneously. The secondary antibody was sucked away, PBST was added, repeated washing was performed on a shaker at room temperature for 4 times, and a signal intensity was detected using an infrared laser imaging system (Lico, Odyssey-CLx).

The next assay concerns the target T2, IKZF3 (Homo sapiens, UniProt Q96SW2+Q9UKT9).
T2 construct: endogenous in cells; host or cells: NCI-H929
As to the kind of experiment: Protein degradation assay (In-Cell Western), IKZF3. Conditions: NCI-H929 cells, 24 hours. As for the experimental part: as §1

T2 sequence (Q9UKT9 whole entry): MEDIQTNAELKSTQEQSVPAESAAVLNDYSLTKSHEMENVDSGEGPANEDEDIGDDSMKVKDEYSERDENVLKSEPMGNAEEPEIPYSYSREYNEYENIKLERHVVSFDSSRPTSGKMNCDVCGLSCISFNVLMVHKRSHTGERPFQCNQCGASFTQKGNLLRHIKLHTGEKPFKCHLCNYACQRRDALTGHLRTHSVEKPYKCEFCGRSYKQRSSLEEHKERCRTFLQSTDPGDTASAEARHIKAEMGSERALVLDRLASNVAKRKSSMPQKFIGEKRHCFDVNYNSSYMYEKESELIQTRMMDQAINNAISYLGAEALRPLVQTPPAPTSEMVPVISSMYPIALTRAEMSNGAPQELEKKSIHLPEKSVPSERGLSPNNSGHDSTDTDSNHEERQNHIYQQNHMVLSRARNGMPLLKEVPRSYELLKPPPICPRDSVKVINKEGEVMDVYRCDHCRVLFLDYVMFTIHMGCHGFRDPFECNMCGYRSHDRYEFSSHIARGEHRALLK
T2 sequence (Q96SW2 whole entry): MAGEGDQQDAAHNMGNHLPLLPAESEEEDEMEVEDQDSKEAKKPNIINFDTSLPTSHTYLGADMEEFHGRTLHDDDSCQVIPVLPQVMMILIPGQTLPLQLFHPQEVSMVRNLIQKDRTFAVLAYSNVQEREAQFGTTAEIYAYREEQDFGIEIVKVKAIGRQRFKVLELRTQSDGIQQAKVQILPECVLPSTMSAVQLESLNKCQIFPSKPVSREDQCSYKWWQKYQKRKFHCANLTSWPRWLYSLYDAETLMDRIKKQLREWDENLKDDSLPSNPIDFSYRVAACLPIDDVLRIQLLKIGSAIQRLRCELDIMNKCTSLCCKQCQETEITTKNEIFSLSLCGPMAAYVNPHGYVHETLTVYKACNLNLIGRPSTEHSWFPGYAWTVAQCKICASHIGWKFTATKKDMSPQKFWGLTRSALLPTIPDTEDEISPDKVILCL
T2 sequence (Q16531 whole entry partner): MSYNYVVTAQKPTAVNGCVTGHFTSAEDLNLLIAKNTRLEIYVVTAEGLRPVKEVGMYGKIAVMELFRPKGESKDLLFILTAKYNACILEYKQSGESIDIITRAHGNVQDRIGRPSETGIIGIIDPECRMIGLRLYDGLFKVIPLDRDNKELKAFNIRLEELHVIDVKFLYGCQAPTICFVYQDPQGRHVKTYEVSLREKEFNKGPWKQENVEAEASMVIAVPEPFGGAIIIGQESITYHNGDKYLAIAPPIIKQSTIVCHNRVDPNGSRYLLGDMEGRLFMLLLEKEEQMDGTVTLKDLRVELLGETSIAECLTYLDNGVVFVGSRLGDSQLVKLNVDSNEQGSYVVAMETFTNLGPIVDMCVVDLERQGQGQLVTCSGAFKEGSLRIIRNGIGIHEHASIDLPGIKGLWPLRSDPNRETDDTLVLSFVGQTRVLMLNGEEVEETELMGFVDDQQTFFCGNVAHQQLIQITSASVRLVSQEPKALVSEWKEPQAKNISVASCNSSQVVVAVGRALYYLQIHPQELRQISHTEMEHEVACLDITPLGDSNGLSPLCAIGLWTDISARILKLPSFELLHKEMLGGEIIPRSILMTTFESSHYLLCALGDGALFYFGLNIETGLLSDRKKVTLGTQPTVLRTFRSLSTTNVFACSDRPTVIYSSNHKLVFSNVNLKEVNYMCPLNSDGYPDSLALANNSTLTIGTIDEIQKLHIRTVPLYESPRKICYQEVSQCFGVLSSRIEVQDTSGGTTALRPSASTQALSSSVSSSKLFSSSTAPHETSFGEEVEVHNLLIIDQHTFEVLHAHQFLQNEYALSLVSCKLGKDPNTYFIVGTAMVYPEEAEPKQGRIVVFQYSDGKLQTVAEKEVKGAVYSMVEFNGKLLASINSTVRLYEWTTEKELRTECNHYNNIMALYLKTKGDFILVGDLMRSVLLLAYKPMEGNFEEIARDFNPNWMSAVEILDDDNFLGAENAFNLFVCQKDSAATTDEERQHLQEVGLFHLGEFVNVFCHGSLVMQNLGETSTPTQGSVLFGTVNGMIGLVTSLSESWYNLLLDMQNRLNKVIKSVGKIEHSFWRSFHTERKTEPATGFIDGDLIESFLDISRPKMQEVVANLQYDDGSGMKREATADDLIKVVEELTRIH
T1 sequence (Q13422 whole entry): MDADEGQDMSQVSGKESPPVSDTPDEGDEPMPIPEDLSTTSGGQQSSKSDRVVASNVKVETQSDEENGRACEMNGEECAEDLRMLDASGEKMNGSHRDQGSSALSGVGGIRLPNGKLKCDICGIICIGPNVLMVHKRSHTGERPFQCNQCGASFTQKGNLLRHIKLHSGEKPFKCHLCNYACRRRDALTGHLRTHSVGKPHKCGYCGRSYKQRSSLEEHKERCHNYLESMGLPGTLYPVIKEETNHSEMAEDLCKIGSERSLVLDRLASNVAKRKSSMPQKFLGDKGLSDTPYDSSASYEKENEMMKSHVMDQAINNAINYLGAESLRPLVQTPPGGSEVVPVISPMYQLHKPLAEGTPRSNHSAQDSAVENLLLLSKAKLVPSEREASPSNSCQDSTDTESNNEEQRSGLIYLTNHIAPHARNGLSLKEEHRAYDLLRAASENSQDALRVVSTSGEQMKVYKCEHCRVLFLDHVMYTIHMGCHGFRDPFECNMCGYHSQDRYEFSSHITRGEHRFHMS
T1 sequence (Q96SW2 whole entry): as the sequence (Q96SW2 whole entry) above
T1 sequence (Q16531 whole entry partner): as the sequence (Q16531 whole entry partner) above

Usually IC50 stands for the concentration at which inhibition is half-maximal. A low value points to greater potency. What is called DC50 is the concentration giving 50% degradation. Read a high DC50 as degradation only at high concentration. Usually Dmax stands for the greatest extent of degradation seen. Read a low Dmax as a partial loss of target. `O=C1CC[C@H](N2Cc3c(OCc4ccc(CN5CCN(c6ccnc(-n7ccnc7)n6)CC5)cc4)cccc3C2=O)C(=O)N1` [Example 1, (S)-3-(4-((4-((4-(2-(1H-imidazol-1-yl)pyrimidin-4-yl)piperazin-1-yl)methyl)benzyl)oxy)-1-oxoisoindolin-2-yl)piperidin-2,6-dione]: in assay [1], half-maximal inhibition (IC50) was put at 0.03 nM. Besides, the DC50 on IKZF1 was determined as 0.31 nM; at IKZF3 it was 0.12 nM. For the same molecule, the Dmax worked out at 75.8% at IKZF1 and 71.4% on IKZF3.
As to `O=C1CCC(N2C(=O)c3cccc4c(Cc5ccc(CN6CCN(c7ccnc(-n8ccnc8)n7)CC6)cc5)ccc2c34)C(=O)N1` (centres unmarked) [Example 3, 3-(6-(4-((4-(2-(1H-imidazol-1-yl)pyrimidin-4-yl)piperazin-1-yl)methyl)benzyl)-2-oxobenzo[cd]indol-1(2H)-yl)piperidin-2,6-dione], in assay [1], 0.003 nM corresponded to half-maximal inhibition (IC50). At IKZF1, this molecule showed a DC50 of 0.081 nM and a Dmax of 73.6%. Further, on IKZF3, the DC50 is 0.05 nM and the Dmax was 76.6%.
On to `O=C1CCC(N2C(=O)c3cccc4c(Cc5ccc(CN6CCN(C(=O)c7cccc(-n8ccnc8)n7)CC6)cc5)ccc2c34)C(=O)N1` (centres unmarked) [Example 4, 3-(6-(4-((4-(6-(1H-imidazol-1-yl)pyridin-2-carbonyl)piperazin-1-yl)methyl)benzyl)-2-oxobenzo[cd]indol-1(2H)-yl)piperidin-2,6-dione], for which the IC50 in assay [1] turned out to be 0.03 nM. Further, at IKZF1, the DC50 came to 0.38 nM and the Dmax is 73.6%. At IKZF3, this molecule displayed a DC50 of 0.19 nM and a Dmax of 70.3%.
In the same order, the values of `O=C1CCC(N2C(=O)c3cccc4c(Cc5ccc(CN6CCN(C(=O)c7ccnc(-n8ccnc8)n7)CC6)cc5)ccc2c34)C(=O)N1` (centres unmarked) [Example 5, 3-(6-(4-((4-(2-(1H-imidazol-1-yl)pyrimidin-4-carbonyl)piperazin-1-yl)methyl)benzyl)-2-oxobenzo[cd]indol-1(2H)-yl)piperidin-2,6-dione] are 0.06 nM, 0.23 nM, 68.4%, 0.12 nM and 73.8%.
Molecule `Cc1nc(N2CCN(Cc3ccc(Cc4ccc5c6c(cccc46)C(=O)N5[C@@H]4CCC(=O)NC4=O)cc3)CC2)cc(-n2cnc(C(F)(F)F)c2)n1` [Example 31, (R)-3-(6-(4-((4-(2-methyl-6-(4-(trifluoromethyl)-1H-imidazol-1-yl)pyrimidin-4-yl)piperazin-1-yl)methyl)benzyl)-2-oxobenzo[cd]indol-1(2H)-yl)piperidin-2,6-dione] showed an IC50 in assay [1] of 0.01 nM. At IKZF1, this molecule registered a DC50 of 0.34 nM and a Dmax of 77%. At IKZF3, the DC50 is 0.16 nM and the Dmax worked out at 75%.
`Cc1ncn(-c2nc(N3CCN(Cc4ccc(Cc5ccc6c7c(cccc57)C(=O)N6C5CCC(=O)NC5=O)cc4)CC3)cc(C(F)(F)F)n2)n1` (centres unmarked) [Example 69, 3-(6-(4-((4-(2-(3-methyl-1H-1,2,4-triazol-1-yl)-6-(trifluoromethyl)pyrimidin-4-yl)piperazin-1-yl)methyl)benzyl)-2-oxobenzo[cd]indol-1(2H)-yl)piperidin-2,6-dione] came in with an IC50 in assay [1] of 0.04 nM.
Molecule `Cc1nc(N2CCN(Cc3ccc(Cc4ccc5c6c(cccc46)C(=O)N5C4CCC(=O)NC4=O)cc3)CC2)cc(-n2cnc(C(F)(F)F)n2)n1` (centres unmarked) [Example 70, 3-(6-(4-((4-(2-methyl-6-(3-(trifluoromethyl)-1H-1,2,4-triazol-1-yl)pyrimidin-4-yl)piperazin-1-yl)methyl)benzyl)-2-oxobenzo[cd]indol-1(2H)-yl)piperidin-2,6-dione] showed an IC50 in assay [1] of 0.1 nM. This IC50 is about 2.5-fold higher than that of the molecule before.
`Cc1nc(N2CCN(Cc3ccc(COc4cccc5c4CN([C@H]4CCC(=O)NC4=O)C5=O)cc3)CC2)cc(-n2cnc(C)n2)n1` [Example 71, (S)-3-(4-((4-((4-(2-methyl-6-(3-methyl-1H-1,2,4-triazol-1-yl)pyrimidin-4-yl)piperazin-1-yl)methyl)benzyl)oxy)-1-oxoisoindolin-2-yl)piperidin-2,6-dione] had an IC50 in assay [1] of 0.1 nM.
Take `Cc1nc(N2CCN(Cc3ccc(COc4cccc5c4CN([C@H]4CCC(=O)NC4=O)C5=O)cc3)CC2)cc(-n2cnc(C(F)(F)F)c2)n1` [Example 72, (S)-3-(4-((4-((4-(2-methyl-6-(4-(trifluoromethyl)-1H-imidazol-1-yl)pyrimidin-4-yl)piperazin-1-yl)methyl)benzyl)oxy)-1-oxoisoindolin-2-yl)piperidin-2,6-dione]: in assay [1], the IC50 turned out to be 0.1 nM.
Still for that read-out and setting: next, `Cc1nc(N2CCN(Cc3ccc(Cc4ccc5c6c(cccc46)C(=O)N5C4CCC(=O)NC4=O)cc3)CC2)cc(-n2cc(C(F)(F)F)nn2)n1` (centres unmarked) [Example 73, 3-(6-(4-((4-(2-methyl-6-(4-(trifluoromethyl)-1H-1,2,3-triazol-1-yl)pyrimidin-4-yl)piperazin-1-yl)methyl)benzyl)-2-oxobenzo[cd]indol-1(2H)-yl)piperidin-2,6-dione]: 0.03 nM; `O=C1CCC(N2C(=O)c3cccc4c(Cc5ccc(CN6CCN(c7cc(C(F)(F)F)nc(-n8cnc(Cl)c8)n7)CC6)cc5)ccc2c34)C(=O)N1` (centres unmarked) [Example 74, 3-(6-(4-((4-(2-(4-chloro-1H-imidazol-1-yl)-6-(trifluoromethyl)pyrimidin-4-yl)piperazin-1-yl)methyl)benzyl)-2-oxobenzo[cd]indol-1(2H)-yl)piperidin-2,6-dione]: 0.1 nM; `N#Cc1cn(-c2nc(N3CCN(Cc4ccc(Cc5ccc6c7c(cccc57)C(=O)N6C5CCC(=O)NC5=O)cc4)CC3)cc(C(F)(F)F)n2)cn1` (centres unmarked) [Example 75, 3-(6-(4-((4-(2-(4-cyano-1H-imidazol-1-yl)-6-(trifluoromethyl)pyrimidin-4-yl)piperazin-1-yl)methyl)benzyl)-2-oxobenzo[cd]indol-1(2H)-yl)piperidin-2,6-dione]: 0.02 nM.
On the same count and under the same terms, with `Cc1nc(N2CCN(Cc3ccc(Cc4ccc5c6c(cccc46)C(=O)N5C4CCC(=O)NC4=O)cc3)CC2)cc(-n2ncc(C(F)(F)F)n2)n1` (centres unmarked) [Example 76, 3-(6-(4-((4-(2-methyl-6-(4-(trifluoromethyl)-2H-1,2,3-triazol-2-yl)pyrimidin-4-yl)piperazin-1-yl)methyl)benzyl)-2-oxobenzo[cd]indol-1(2H)-yl)piperidin-2,6-dione] the figure was 0.1 nM; with `Cc1nc(N2CCN(C3CN(Cc4ccc(COc5cccc6c5CN([C@H]5CCC(=O)NC5=O)C6=O)cc4)C3)CC2)cc(-n2cnc(C)n2)n1` [Example 77, (S)-3-(4-((4-((3-(4-(2-methyl-6-(3-methyl-1H-1,2,4-triazol-1-yl)pyrimidin-4-yl)piperazin-1-yl)azetidin-1-yl)methyl)benzyl)oxy)-1-oxoisoindolin-2-yl)piperidin-2,6-dione], 0.1 nM; with `Cc1nc(N2CCN(C3CN(Cc4ccc(COc5cccc6c5CN([C@H]5CCC(=O)NC5=O)C6=O)cc4)C3)CC2)cc(-n2cnc(C(F)(F)F)c2)n1` [Example 78, (S)-3-(4-((4-((3-(4-(2-methyl-6-(4-(trifluoromethyl)-1H-imidazol-1-yl)pyrimidin-4-yl)piperazin-1-yl)azetidin-1-yl)methyl)benzyl)oxy)-1-oxoisoindolin-2-yl)piperidin-2,6-dione], 0.1 nM.
In assay [1], `CC(C)N1CCN=C1c1cccc(N2CCN(Cc3ccc(Cc4ccc5c6c(cccc46)C(=O)N5C4CCC(=O)NC4=O)cc3)CC2)n1` (centres unmarked) [Example 79, 3-(6-(4-((4-(6-(1-isopropyl-4,5-dihydro-1H-imidazol-2-yl)pyridin-2-yl)piperazin-1-yl)methyl)benzyl)-2-oxobenzo[cd]indol-1(2H)-yl)piperidin-2,6-dione] registered an IC50 of 1.6 nM. Compared with the last molecule, the IC50 is about 16-fold higher.
On the same count and under the same terms, next, `O=C1CC[C@H](N2Cc3c(OCc4ccc(CN5CCN(c6ccnc(-c7cncs7)n6)CC5)cc4)cccc3C2=O)C(=O)N1` [Example 80, (S)-3-(1-oxo-4-((4-((4-(2-(thiazol-5-vi)pyrimidin-4-yl)piperazin-1-yl)methyl)benzyl)oxy)isoindolin-2-yl)piperidin-2,6-dione]: 0.4 nM.
In assay [1], `[2H]C([2H])(c1ccc(Cc2ccc3c4c(cccc24)C(=O)N3C2CCC(=O)NC2=O)cc1)N1CCN(c2cc(-n3cnc(C(F)(F)F)c3)nc(C)n2)CC1` (centres unmarked) [Example 82, 3-(6-(4-((4-(2-methyl-6-(4-(trifluoromethyl)-1H-imidazol-1-yl)pyrimidin-4-yl)piperazin-1-yl)methyl-d2)benzyl)-2-oxobenzo[cd]indol-1(2H)-yl)piperidin-2,6-dione] had an IC50 of 0.02 nM.
